# Reference: ChEMBL document CHEMBL3397008, “Design, synthesis and evaluation of XZH-5 analogues as STAT3 inhibitors” (Bioorg Med Chem, 2015)
# Test system: not listed separately
# Test: Cytotoxicity against human PANC1 cells after 72 hrs by MTT assay
# Format: functional, cell-based
# Details: PANC-1, 72 h
row,SMILES,IC50 [µM]
1,COC(=O)[C@H](Cc1cn(C)cn1)NC(=O)[C@H](Cc1c[nH]c2ccccc12)NC(=O)Nc1cc(C(F)(F)F)cc(C(F)(F)F)c1,31.4
2,C[C@H](NC(=O)Nc1cc(C(F)(F)F)cc(C(F)(F)F)c1)C(=O)N[C@@H](Cc1cn(C)cn1)C(=O)O,> 100
3,COC(=O)[C@H](Cc1c[nH]cn1)NC(=O)[C@@H](NC(=O)Nc1cc(C(F)(F)F)cc(C(F)(F)F)c1)C(C)C,98.4
4,CCn1cnc(C[C@H](NC(=O)[C@@H](NC(=O)Nc2cc(C(F)(F)F)cc(C(F)(F)F)c2)C(C)C)C(=O)OC)c1,11.1
5,COC(=O)[C@H](Cc1cn(C)cn1)NC(=O)[C@H](C)NC(=O)Nc1cc(C(F)(F)F)cc(C(F)(F)F)c1,50
6,COC(=O)[C@H](Cc1cn(C)cn1)NC(=O)[C@@H](NC(=O)Nc1cccc(C(F)(F)F)c1)C(C)C,61.9
7,CC[C@H](C)[C@H](NC(=O)Nc1cc(C(F)(F)F)cc(C(F)(F)F)c1)C(=O)N[C@@H](Cc1cn(C)cn1)C(=O)OC,10.1
8,COC(=O)[C@H](Cc1cn(C)cn1)NC(=O)[C@H](CC(=O)OCc1ccccc1)NC(=O)Nc1cc(C(F)(F)F)cc(C(F)(F)F)c1,68.6
9,COC(=O)[C@H](Cc1cn(C)cn1)NC(=O)[C@H](CC(C)C)NC(=O)Nc1cc(C(F)(F)F)cc(C(F)(F)F)c1,16.8
10,COC(=O)[C@H](Cc1cn(C)cn1)NC(=O)[C@H](CCC(=O)OCc1ccccc1)NC(=O)Nc1cc(C(F)(F)F)cc(C(F)(F)F)c1,85.5
11,CC(C)[C@H](NC(=O)Nc1cc(C(F)(F)F)cc(C(F)(F)F)c1)C(=O)N[C@@H](Cc1cn(C)cn1)C(=O)O,> 100
12,COC(=O)[C@H](Cc1cn(C)cn1)NC(=O)[C@H](Cc1ccccc1)NC(=O)Nc1cc(C(F)(F)F)cc(C(F)(F)F)c1,16.1
13,COC(=O)[C@H](Cc1cn(C)cn1)NC(=O)[C@@H](NC(=O)Nc1cc(C(F)(F)F)cc(C(F)(F)F)c1)C(C)C,24.7
14,COC(=O)[C@H](Cc1cn(C)cn1)NC(=O)[C@@H](NC(=O)Nc1cc(C(F)(F)F)cc(C(F)(F)F)c1)C(C)(C)C,8.8

# Test system: HPAC
# Test: Cytotoxicity against human HPAC cells after 72 hrs by MTT assay
# Format: functional, cell-based
# Details: not given
row,SMILES,IC50 [µM]
1,CCn1cnc(C[C@H](NC(=O)[C@@H](NC(=O)Nc2cc(C(F)(F)F)cc(C(F)(F)F)c2)C(C)C)C(=O)OC)c1,9.5
2,CC[C@H](C)[C@H](NC(=O)Nc1cc(C(F)(F)F)cc(C(F)(F)F)c1)C(=O)N[C@@H](Cc1cn(C)cn1)C(=O)OC,7.6
3,COC(=O)[C@H](Cc1cn(C)cn1)NC(=O)[C@H](CC(C)C)NC(=O)Nc1cc(C(F)(F)F)cc(C(F)(F)F)c1,13.2
4,COC(=O)[C@H](Cc1cn(C)cn1)NC(=O)[C@H](Cc1ccccc1)NC(=O)Nc1cc(C(F)(F)F)cc(C(F)(F)F)c1,9.6
5,COC(=O)[C@H](Cc1cn(C)cn1)NC(=O)[C@@H](NC(=O)Nc1cc(C(F)(F)F)cc(C(F)(F)F)c1)C(C)C,17.4
6,COC(=O)[C@H](Cc1cn(C)cn1)NC(=O)[C@@H](NC(=O)Nc1cc(C(F)(F)F)cc(C(F)(F)F)c1)C(C)(C)C,9.8

# Test system: MDA-MB-231
# Test: Cytotoxicity against human MDA-MB-231 cells after 72 hrs by MTT assay
# Format: functional, cell-based
# Details: MDA-MB-231, 72 h
row,SMILES,IC50 [µM]
1,CCn1cnc(C[C@H](NC(=O)[C@@H](NC(=O)Nc2cc(C(F)(F)F)cc(C(F)(F)F)c2)C(C)C)C(=O)OC)c1,7.6
2,CC[C@H](C)[C@H](NC(=O)Nc1cc(C(F)(F)F)cc(C(F)(F)F)c1)C(=O)N[C@@H](Cc1cn(C)cn1)C(=O)OC,6.5
3,COC(=O)[C@H](Cc1cn(C)cn1)NC(=O)[C@H](CC(C)C)NC(=O)Nc1cc(C(F)(F)F)cc(C(F)(F)F)c1,10.6
4,COC(=O)[C@H](Cc1cn(C)cn1)NC(=O)[C@H](Cc1ccccc1)NC(=O)Nc1cc(C(F)(F)F)cc(C(F)(F)F)c1,6.8
5,COC(=O)[C@H](Cc1cn(C)cn1)NC(=O)[C@@H](NC(=O)Nc1cc(C(F)(F)F)cc(C(F)(F)F)c1)C(C)C,15.5
6,COC(=O)[C@H](Cc1cn(C)cn1)NC(=O)[C@@H](NC(=O)Nc1cc(C(F)(F)F)cc(C(F)(F)F)c1)C(C)(C)C,9.4

# Test system: SW1990
# Test: Cytotoxicity against human SW1990 cells after 72 hrs by MTT assay
# Format: functional, cell-based
# Details: SW1990, 72 h
row,SMILES,IC50 [µM]
1,CCn1cnc(C[C@H](NC(=O)[C@@H](NC(=O)Nc2cc(C(F)(F)F)cc(C(F)(F)F)c2)C(C)C)C(=O)OC)c1,9.4
2,CC[C@H](C)[C@H](NC(=O)Nc1cc(C(F)(F)F)cc(C(F)(F)F)c1)C(=O)N[C@@H](Cc1cn(C)cn1)C(=O)OC,8.3
3,COC(=O)[C@H](Cc1cn(C)cn1)NC(=O)[C@H](CC(C)C)NC(=O)Nc1cc(C(F)(F)F)cc(C(F)(F)F)c1,9.1
4,COC(=O)[C@H](Cc1cn(C)cn1)NC(=O)[C@H](Cc1ccccc1)NC(=O)Nc1cc(C(F)(F)F)cc(C(F)(F)F)c1,10.8
5,COC(=O)[C@H](Cc1cn(C)cn1)NC(=O)[C@@H](NC(=O)Nc1cc(C(F)(F)F)cc(C(F)(F)F)c1)C(C)C,17.9
6,COC(=O)[C@H](Cc1cn(C)cn1)NC(=O)[C@@H](NC(=O)Nc1cc(C(F)(F)F)cc(C(F)(F)F)c1)C(C)(C)C,8.5
